SMILES strings stand for the structures. A value given as a limit tells only on which side of the number the result lay.

Test [1] deals with c-Kit kinase (Homo sapiens (Human), UniProt P10721). Nature of the test: c-Kit biochemical assay (AlphaScreen kinase activity). An outline of the steps: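 IC50 values come from 8-point, 1:3 compound titrations measuring inhibition of peptide phosphorylation by c-Kit (commercial or His-tagged E. coli-expressed) over 1 h at room temperature, read by AlphaScreen PY30/streptavidin beads. Low-ATP version: 10 μM ATP, 100 nM biotin-(E4Y)3; high-ATP version: 100 μM ATP, 30 nM biotin-(E4Y)10.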
(In general: Bead proximity is the source of the signal in Alpha formats.)

Test [2] relates to BaF3-FL KIT D816V or BaF3-FL KIT V560G/D816V cell line. Nature of the test: Cell-based assays of c-Kit mutant kinase activity (cell proliferation, ATPlite). Particulars: at least one of the c-kit cell assays of Example 7. An outline of the steps: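 BaF3 cells dependent on transfected full-length human KIT D816V or V560G/D816V (pCI-Neo, CMV promoter) were seeded at 1×10^4 cells/well and exposed to 8-point 1:3 dilutions from 10 μM top (0.2% DMSO) for three days at 37° C. ATPlite luminescence gave cell number; IC50 from concentration-response.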
On the technique in general: In ATP-based viability assays light output follows the ATP content of the culture.

c-Kit kinase, sequence (P10721 26-976): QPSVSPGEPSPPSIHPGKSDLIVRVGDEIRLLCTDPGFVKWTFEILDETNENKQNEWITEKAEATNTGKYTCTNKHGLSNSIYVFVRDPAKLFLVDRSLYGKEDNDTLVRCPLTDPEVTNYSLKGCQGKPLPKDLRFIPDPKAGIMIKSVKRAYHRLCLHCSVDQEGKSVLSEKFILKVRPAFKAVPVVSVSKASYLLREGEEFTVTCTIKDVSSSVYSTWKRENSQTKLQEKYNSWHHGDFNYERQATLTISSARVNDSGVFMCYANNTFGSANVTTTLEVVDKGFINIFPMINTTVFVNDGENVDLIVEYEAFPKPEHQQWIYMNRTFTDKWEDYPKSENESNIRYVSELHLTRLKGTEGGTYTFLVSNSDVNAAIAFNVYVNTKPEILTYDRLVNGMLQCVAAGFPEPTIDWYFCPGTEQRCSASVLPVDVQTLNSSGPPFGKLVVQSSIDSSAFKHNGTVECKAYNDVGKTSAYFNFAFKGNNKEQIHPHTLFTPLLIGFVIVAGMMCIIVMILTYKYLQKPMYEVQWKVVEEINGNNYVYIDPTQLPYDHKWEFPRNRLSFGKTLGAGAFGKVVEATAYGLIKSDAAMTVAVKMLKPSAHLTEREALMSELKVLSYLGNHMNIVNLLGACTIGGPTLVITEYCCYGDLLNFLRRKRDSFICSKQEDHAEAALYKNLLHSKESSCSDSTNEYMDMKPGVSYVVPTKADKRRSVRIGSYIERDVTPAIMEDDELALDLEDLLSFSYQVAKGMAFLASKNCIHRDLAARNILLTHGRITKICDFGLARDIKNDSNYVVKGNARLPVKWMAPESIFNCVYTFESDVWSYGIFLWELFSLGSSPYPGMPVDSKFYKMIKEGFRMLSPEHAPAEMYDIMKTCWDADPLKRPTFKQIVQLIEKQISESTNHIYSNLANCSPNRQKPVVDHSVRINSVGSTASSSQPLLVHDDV

As for `Cc1nc(C2CCN(c3ncnc4[nH]c(-c5ccc(F)cc5)cc34)CC2)[nH]c1-c1ccc(F)cc1` [P-3006, 6-(4-fluorophenyl)-4-[4-[5-(4-fluorophenyl)-4-methyl-1H-imidazol-2-yl]-1-piperidyl]-7H-pyrrolo[2,3-d]pyrimidine], the figures for the IC50 in test [1] and in test [2] were 0.0001 to 1 µM and below 10000 nM, respectively.

As to `Cc1ccc(-c2[nH]c(C3CCN(c4ncnc5[nH]c(-c6ccc(C#N)cc6)cc45)CC3)nc2C)cc1` [P-3089, 4-[4-[4-[4-methyl-5-(p-tolyl)-1H-imidazol-2-yl]-1-piperidyl]-7H-pyrrolo[2,3-d]pyrimidin-6-yl]benzonitrile], the figures for the IC50 in test [1] and in test [2] were 0.0001 to 1 µM and below 10000 nM, respectively.

For the molecule `Cc1ccc(-c2[nH]c(C3CCN(c4ncnc5[nH]c(-c6ccc(C#N)cc6)cc45)CC3)nc2C)s1` [P-3090, 4-[4-[4-[4-methyl-5-(5-methyl-2-thienyl)-1H-imidazol-2-yl]-1-piperidyl]-7H-pyrrolo[2,3-d]pyrimidin-6-yl]benzonitrile], the results for the IC50 in test [1] and in test [2] were 0.0001 to 1 µM and below 10000 nM, respectively.

For the molecule `COc1cc(-c2cc3c(N4CCC(c5nc(C)c(-c6ccc(OC(C)C)cc6)[nH]5)CC4)ncnc3[nH]2)ccn1` [P-3091, 4-[4-[5-(4-isopropoxyphenyl)-4-methyl-1H-imidazol-2-yl]-1-piperidyl]-6-(2-methoxy-4-pyridyl)-7H-pyrrolo[2,3-d]pyrimidine], the results for the IC50 in test [1] and in test [2] were 0.0001 to 1 µM and below 10000 nM, respectively.

Regarding `Cc1nc(C2CCN(c3ncnc4[nH]c(-c5ccc(F)cc5)cc34)CC2)[nH]c1-c1ccc(OC(C)C)cc1` [P-3092, 6-(4-fluorophenyl)-4-[4-[5-(4-isopropoxyphenyl)-4-methyl-1H-imidazol-2-yl]-1-piperidyl]-7H-pyrrolo[2,3-d]pyrimidine], the IC50 in test [1] was 0.0001 to 1 µM; in test [2], below 10000 nM.

With `Cc1nc(C2CCN(c3ncnc4[nH]c(-c5ccc(C#N)cc5)cc34)CC2)[nH]c1-c1ccc(OC(C)C)cc1` [P-3093, 4-[4-[4-[5-(4-isopropoxyphenyl)-4-methyl-1H-imidazol-2-yl]-1-piperidyl]-7H-pyrrolo[2,3-d]pyrimidin-6-yl]benzonitrile], the IC50 in test [1] is 0.0001 to 1 µM; in test [2] it was below 10000 nM.

For the molecule `CCOc1cc(-c2[nH]c(C3CCN(c4ncnc5[nH]c(-c6ccc(F)cc6)cc45)CC3)nc2C)ccc1C` [P-3094, 4-[4-[5-(3-ethoxy-4-methyl-phenyl)-4-methyl-1H-imidazol-2-yl]-1-piperidyl]-6-(4-fluorophenyl)-7H-pyrrolo[2,3-d]pyrimidine], the IC50 in test [1] is 0.0001 to 1 µM; in test [2], below 10000 nM.

As usually defined, the IC50 is the concentration that gives 50% inhibition. A low value points to greater potency in that assay.

The values are drawn from patent US9771369B2, “Compounds and methods for kinase modulation, and indications therefor” (Plexxikon Inc., priority 2014, dated 2017).
